Biological target: T1, human ANO6 (variant 5) (Homo sapiens, UniProt Q4KMQ2)
T1 construct: expressed in transfected cells; host or cells: Fischer rat thyroid (FRT) cells
T1 sequence (Q4KMQ2 1-931 isoform Q4KMQ2-2): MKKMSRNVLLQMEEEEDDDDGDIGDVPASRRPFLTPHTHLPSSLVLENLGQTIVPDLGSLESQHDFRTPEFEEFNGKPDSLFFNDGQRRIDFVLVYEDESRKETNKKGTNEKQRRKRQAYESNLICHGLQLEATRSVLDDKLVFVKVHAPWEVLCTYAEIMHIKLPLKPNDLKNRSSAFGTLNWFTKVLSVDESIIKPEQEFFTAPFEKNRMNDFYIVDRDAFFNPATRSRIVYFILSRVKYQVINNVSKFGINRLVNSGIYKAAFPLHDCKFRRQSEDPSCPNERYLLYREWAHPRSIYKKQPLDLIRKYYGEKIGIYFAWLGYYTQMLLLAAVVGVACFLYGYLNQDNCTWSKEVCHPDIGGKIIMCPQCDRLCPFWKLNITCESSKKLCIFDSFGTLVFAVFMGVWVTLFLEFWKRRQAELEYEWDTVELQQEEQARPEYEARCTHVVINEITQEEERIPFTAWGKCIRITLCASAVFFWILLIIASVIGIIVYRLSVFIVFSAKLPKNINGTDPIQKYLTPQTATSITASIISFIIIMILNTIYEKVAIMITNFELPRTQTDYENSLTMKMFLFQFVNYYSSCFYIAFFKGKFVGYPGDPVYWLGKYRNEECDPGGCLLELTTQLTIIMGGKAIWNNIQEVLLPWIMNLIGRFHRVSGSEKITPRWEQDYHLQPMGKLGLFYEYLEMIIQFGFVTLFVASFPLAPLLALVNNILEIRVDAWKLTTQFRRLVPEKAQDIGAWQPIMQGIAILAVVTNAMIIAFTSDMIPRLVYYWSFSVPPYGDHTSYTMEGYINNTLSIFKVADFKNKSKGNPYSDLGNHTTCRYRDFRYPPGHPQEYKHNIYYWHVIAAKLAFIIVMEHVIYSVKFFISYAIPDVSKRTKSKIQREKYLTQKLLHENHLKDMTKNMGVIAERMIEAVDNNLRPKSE
Assay: Lact C2 assay (measuring phosphatidylserine externalization scramblase function)
Assay type: cell-based
Details: FRT, FRT cells expressing human ANO6 (variant 5), ionomycin 10 µM, Lact-C2-GFP fluorescence, average of three tests; for inhibition at 0.05 µM: compound 50 nM, read-out: % Inhibition 50 nM; for inhibition at 1 µM: compound 1 µM, read-out: % Inhibition 1 µM
Method in brief: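 Cells were pretreated 10 min with compound (50 nM, 100 nM, 1 µM; 1% DMSO), then given 10 µM ionomycin for 10 min. Surface phosphatidylserine was stained with 500 nM Lact-C2-GFP (10 min, 37 °C), fixed and imaged. Inhibition was scaled between untreated (100%) and ionomycin-alone (0%) wells.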

SMILES | inhibition at 0.05 µM | inhibition at 1 µM
FC(F)(F)c1ccc2nc(-c3cccc(Nc4ccc(-c5ccccn5)cc4)c3)[nH]c2c1 [Example 98, N-[4-(2-pyridyl)phenyl]-3-[6-(trifluoromethyl)-1H-benzo[d]imidazol-2-yl]aniline] | > 60% | > 60%
Fc1cc2nc(-c3cccc(Nc4ncc(-c5cccnn5)cn4)c3)[nH]c2cc1F [Example 99, N-[3-(5,6-difluoro-1H-benzo[d]imidazol-2-yl)phenyl]-5-pyridazin-3-yl-pyrimidin-2-amine] | 30 to 60% | > 60%
FC(F)(F)c1ccc2nc(-c3cccc(Nc4ccc(-c5ncccn5)cn4)c3)[nH]c2c1 [Example 100, 5-pyrimidin-2-yl-N-[3-[6-(trifluoromethyl)-1H-benzo[d]imidazol-2-yl]phenyl]pyridin-2-amine] | > 60% | > 60%
Cc1cccc2nc(-c3cccc(Nc4ccc(-c5cccnn5)cc4)c3)[nH]c12 [Example 101, 3-(7-methyl-1H-benzo[d]imidazol-2-yl)-N-(4-pyridazin-3-ylphenyl)aniline] | > 60% | > 60%
Fc1cc2[nH]c(-c3cccc(Nc4ccc(-c5cccnn5)cc4)c3)nc2cc1Cl [Example 102, 3-(5-chloro-6-fluoro-1H-benzo[d]imidazol-2-yl)-N-(4-pyridazin-3-ylphenyl)aniline] | > 60% | > 60%
FC(F)(F)c1cc2[nH]c(-c3cccc(Nc4ncc(-c5cccnn5)cn4)c3)nc2cn1 [Example 103, 5-pyridazin-3-yl-N-[3-[6-(trifluoromethyl)-1H-imidazo[4,5-c]pyridin-2-yl]phenyl]pyrimidin-2-amine] |  | > 60%
Fc1cc2[nH]c(-c3cccc(Nc4ccc(-c5cccnn5)cc4)c3)nc2cc1C(F)(F)F [Example 104, 3-[6-fluoro-5-(trifluoromethyl)-1H-benzo[d]imidazol-2-yl]-N-(4-pyridazin-3-ylphenyl)aniline] | > 60% | > 60%
Cc1ccc2nc(-c3cccc(Nc4ccc(-c5cccnn5)cc4)c3)[nH]c2c1 [Example 105, 3-(6-methyl-1H-benzo[d]imidazol-2-yl)-N-(4-pyridazin-3-ylphenyl)aniline] | > 60% | > 60%
CC(C)(C)c1ccc2nc(-c3cccc(Nc4ccc(-c5cccnn5)cc4)c3)[nH]c2c1 [Example 107, 3-(6-tert-butyl-1H-benzo[d]imidazol-2-yl)-N-(4-pyridazin-3-ylphenyl)aniline] | 30 to 60% | > 60%
COc1ccc2nc(-c3cccc(Nc4ncc(-c5cccnn5)cn4)c3)[nH]c2c1 [Example 108, N-[3-(6-methoxy-1H-benzo[d]imidazol-2-yl)phenyl]-5-pyridazin-3-yl-pyrimidin-2-amine] |  | 30 to 60%
FC(F)(F)Oc1ccc2nc(-c3cccc(Nc4ccc(-c5ccncn5)cc4)c3)[nH]c2c1 [Example 109, N-(4-pyrimidin-4-ylphenyl)-3-[6-(trifluoromethoxy)-1H-benzo[d]imidazol-2-yl]aniline] | > 60% | > 60%
CC(C)OC(=O)c1ccc2nc(-c3cccc(Nc4ccc(-c5cccnn5)cc4)c3)[nH]c2c1 [Example 111, isopropyl 2-(3-((4-(pyridazin-3-yl)phenyl)amino)phenyl)-1H-benzo[d]imidazole-6-carboxylate] | 30 to 60% | > 60%
Cc1cc2nc(-c3cccc(Nc4ccc(-c5cccnn5)cc4)c3)[nH]c2cc1F [Example 114, 3-(6-fluoro-5-methyl-1H-benzo[d]imidazol-2-yl)-N-(4-pyridazin-3-ylphenyl)aniline] | 30 to 60% | > 60%
Clc1cccc2nc(-c3cccc(Nc4ccc(-c5cccnn5)cc4)c3)[nH]c12 [Example 115, 3-(7-chloro-1H-benzo[d]imidazol-2-yl)-N-(4-pyridazin-3-ylphenyl)aniline] |  | > 60%
Clc1cc2[nH]c(-c3cccc(Nc4ccc(-c5ccncn5)cc4)c3)nc2cn1 [Example 117, 3-(6-chloro-1H-imidazo[4,5-c]pyridin-2-yl)-N-(4-pyrimidin-4-ylphenyl)aniline] |  | > 60%
FC(F)(F)Oc1ccc2nc(-c3cccc(Nc4ncc(-c5ccccn5)cn4)c3)[nH]c2c1 [Example 118, 5-(2-pyridyl)-N-[3-[6-(trifluoromethoxy)-1H-benzo[d]imidazol-2-yl]phenyl]pyrimidin-2-amine] | > 60% | > 60%
Clc1cc2[nH]c(-c3cccc(Nc4ccc(-c5ccccn5)cc4)c3)nc2cn1 [Example 119, 3-(6-chloro-1H-imidazo[4,5-c]pyridin-2-yl)-N-[4-(2-pyridyl)phenyl]aniline] | 30 to 60% | > 60%
FC(F)(F)Oc1cc2nc(-c3cccc(Nc4ncc(-c5cccnn5)cn4)c3)[nH]c2cc1Cl [Example 120, N-[3-[6-chloro-5-(trifluoromethoxy)-1H-benzo[d]imidazol-2-yl]phenyl]-5-pyridazin-3-yl-pyrimidin-2-amine] | > 60% | > 60%
c1cc(Nc2ncc(-c3ccoc3)cn2)cc(-c2nc3ccccc3[nH]2)c1 [Example 163, N-[3-(1H-benzo[d]imidazol-2-yl)phenyl]-5-(3-furyl)pyrimidin-2-amine] |  | > 60%
c1cc(Nc2ncc(-c3ccsc3)cn2)cc(-c2nc3ccccc3[nH]2)c1 [Example 164, N-[3-(1H-benzo[d]imidazol-2-yl)phenyl]-5-(3-thienyl)pyrimidin-2-amine] | 30 to 60% | > 60%
c1cc(Nc2ccc(-c3ncco3)cc2)cc(-c2nc3ccccc3[nH]2)c1 [Example 165, 3-(1H-benzo[d]imidazol-2-yl)-N-(4-oxazol-2-ylphenyl)aniline] | 30 to 60% | > 60%
c1cc(Nc2ccc(-c3cscn3)cc2)cc(-c2nc3ccccc3[nH]2)c1 [Example 166, 3-(1H-benzo[d]imidazol-2-yl)-N-(4-thiazol-4-ylphenyl)aniline] | > 60% | > 60%
c1cc(Nc2ncc(-c3ncco3)cn2)cc(-c2nc3ccccc3[nH]2)c1 [Example 171, N-[3-(1H-benzo[d]imidazol-2-yl)phenyl]-5-oxazol-2-yl-pyrimidin-2-amine] |  | 30 to 60%
CN(C)CCOc1ccc(-c2nc3ccc(C(F)(F)F)cc3[nH]2)cc1Nc1ccc(-c2cnccn2)cc1 [Example 174, 2-[2-(dimethylamino)ethoxy]-N-(4-pyrazin-2-ylphenyl)-5-[6-(trifluoromethyl)-1H-benzo[d]imidazol-2-yl]aniline] |  | 30 to 60%
CN1CCN(CCOc2ccc(-c3nc4ccc(C(F)(F)F)cc4[nH]3)cc2Nc2ccc(-c3cnccn3)cc2)CC1 [Example 175, 2-[2-(4-methylpiperazin-1-yl)ethoxy]-N-(4-pyrazin-2-ylphenyl)-5-[6-(trifluoromethyl)-1H-benzo[d]imidazol-2-yl]aniline] |  | > 60%
CN1CCN(c2ccc(-c3nc4ccc(C(F)(F)F)cc4[nH]3)cc2Nc2ncc(-c3cccnn3)cn2)CC1 [Example 176, N-(2-(4-methylpiperazin-1-yl)-5-(6-(trifluoromethyl)-lH-benzo[d]imidazol-2-yl)phenyl)-5-(pyridazin-3-yl)pyrimidin-2-amine] |  | 30 to 60%
Cc1cc(-c2cccnn2)ccc1Nc1cccc(-c2nc3ccccc3[nH]2)c1 [Example 203, N-(3-(1H-benzo[d]imidazol-2-yl)phenyl)-2-methyl-4-(pyridazin-3-yl)aniline] | 30 to 60% | > 60%
Cc1cc(Nc2cccc(-c3nc4ccccc4[nH]3)c2)ccc1-c1cccnn1 [Example 204, N-(3-(1H-benzo[d]imidazol-2-yl)phenyl)-3-methyl-4-(pyridazin-3-yl)aniline] |  | > 60%
Nc1cc(Nc2cccc(-c3nc4ccccc4[nH]3)c2)ccc1-c1cccnn1 [Example 207, N^1-(3-(1H-benzo[d]imidazol-2-yl)phenyl)-4-(pyridazin-3-yl)benzene-1,3-diamine] |  | > 60%
COc1cc(Nc2cccc(-c3nc4ccccc4[nH]3)c2)ccc1-c1cccnn1 [Example 208, N-(3-(1H-benzo[d]imidazol-2-yl)phenyl)-3-methoxy-4-(pyridazin-3-yl)aniline] |  | > 60%
